Several values for one entry are separate records, joined by “and”; a condition that tells them apart may be missing. Identical values can stand only once.
Columns and labels:
[1] = Lipophilicity (log P)
[2] = In vitro metabolism assay (S9 fraction of human liver microsomes); format: in vitro ADME
Description: To further explore the metabolic stability of compounds 25, 26, and 60 in a biologically relevant model, they were tested in an in vitro metabolism assay (S9 fraction of human liver microsomes) using retigabine as a comparator.[33],[34] In this assay, a very small extent (4.7 ± 0.5%) of retigabine undergoes phase I metabolism, whereas a larger fraction (17.4 ± 1.2%) was metabolized in phase II reactions, as previously reported.[35]

[3] = target: T1, Kv7.2 S303A channels (Homo sapiens, UniProt O43526, S303A); experiment: Whole-cell patch-clamp on homomeric Kv7.2 S303A mutant channels; format: cell-based; conditions: 10 μM RET or 1 μM 60
T1 construct: expressed in transfected cells; host or cells: CHO cells, transient transfection (pcDNA3.1)
From the text: Current scale, 200 pA; time scale, 200 ms. (B,C) Dose–response curves reporting the effects of the 3 indicated compounds on the V1/2 shift (ΔV1/2) in mV (B) and on maximal current density (Idrug/Icontrol; C) calculated at +20 mV for Kv7.2/Kv7.3 channels.
Channel subunits were expressed in Chinese hamster ovary (CHO) cells by transient transfection, using plasmids containing cDNAs encoding human Kv7.2 and/or Kv7.3, all cloned in the pcDNA3.1 vector. According to the experimental protocol, these plasmids were expressed individually or in combination, together with a plasmid-expressing enhanced green fluorescent protein (Clontech, Palo Alto, CA) used as a transfection marker. Total cDNA in the transfection mixture was kept at 4 μg. CHO cells were grown in 100 mm plastic Petri dishes in Dulbecco’s modified Eagle’s medium containing 10% fetal bovine serum, nonessential amino acids (0.1 mM), penicillin (50 U/mL), and streptomycin ([…]) in a humidified atmosphere at 37 °C with 5% CO2.
Currents from CHO cells were recorded at room temperature (20–22 °C) using the whole-cell configuration of the patch-clamp technique, with glass micropipettes of 3–5 MΩ resistance. During the recording, constant perfusion of extracellular solution was maintained. […] The pipette (intracellular) solution contained (in mM): 140 KCl, 2 MgCl2, 10 EGTA, 10 HEPES, 5 Mg^2+-ATP, at pH 7.3–7.4, with KOH. […]

[4] = target: T2, Kv7.2 W236L channels (Homo sapiens, UniProt O43526, W236L); experiment: Whole-cell patch-clamp on homomeric Kv7.2 W236L mutant channels; format: cell-based; conditions: 10 μM RET or 1 μM 60
T2 construct: expressed in transfected cells; host or cells: CHO cells, transient transfection (pcDNA3.1)

[5] = tested on: PTZ-induced seizures; experiment: Pentylenetetrazol (PTZ)-induced acute seizures in mice; format: in vivo, C57Bl/6 mice; conditions: for Seizure score (Lüttjohann's scale): 30 min before PTZ 100 mg/kg s.c.; for Latency to maximal seizures: 30 min before PTZ; for Survival rate in PTZ seizure model: end of 60 min observation; for Minimum effective dose: i.p., PTZ model
Description: A subcutaneous (s.c.) injection of 100 mg/kg PTZ in mice is able to trigger convulsive behavior whose intensity can be assessed and quantified according to the revised Lüttjohann’s scale (see Materials and Methods),[40] using a 9-point severity score ranging from 0 (whisker trembling) to 8 (wild jumping). For each animal, the maximal severity score (Figure 5A) and the time latency required to reach such values (Figure 5B) were recorded.
Food and water were available ad libitum. Animals were experimentally naive and were used only once.
Thus, each dose was dissolved to allow injection of 0.01 mL/g, i.p. The control group was represented by mice injected only with vehicle solution (saline containing 2% Tween-20 and 2% PEG-400).
PTZ was injected, and animals were placed in clear Plexiglass boxes for observation of seizure activity. The severity of convulsions (from minimal “clonic” to maximal “generalized tonic–clonic”) as well as the latency to onset of maximal seizure was recorded.
0 = whisker trembling, 1 = sudden behavioral arrest, 2 = facial jerking, 3 = neck jerks, 4 = clonic seizures (sitting), 5 = tonic clonic seizures (lying on belly), 6 = clonic seizures (lying on side), 7 = tonic clonic seizures (lying on side), 8 = wild jumping. The behavioral assessments described above were performed in a blind manner and the observers had to reach a unanimous agreement regarding the scoring of the behavior.
The number of animals needed for the experiment was determined using the power analysis software GPower version 3.1.92. The required minimum sample size was 8 mice per group. Statistical analyses were performed using GraphPad Prism (GraphPad Software, LaJolla, CA) using a one-way analysis of variance with the Tukey post-hoc test. The P value of <0.05 was accepted as indicative of a statistically significant difference.

[6] = S9 fraction of human liver microsomes
[7] = 3 mg/kg i.p., listed as Retigabine

Row | Compound | log P ([1]; method not stated) | Phase I turnover metabolism [2, 6] | Phase II turnover metabolism [2, 6] | Kv7 opening ability in S303A channels [3] | Kv7 opening ability in W236L channels [4] | Seizure score (Lüttjohann's scale) ([5]; 1 mg/kg i.p.) | Latency to maximal seizures ([5]; 3 mg/kg i.p.) | Seizure score (Lüttjohann's scale) ([5]; 3 mg/kg i.p.) | Seizure score (Lüttjohann's scale) [5, 7] | Latency to maximal seizures [5, 7] | Survival rate in PTZ seizure model ([5]; 3 mg/kg i.p.) | Survival rate in PTZ seizure model ([5]; 3 mg/kg i.p., listed as retigabine) | Minimum effective dose [5] | logP [1] | Phase I turnover metabolism ([2]; human) | Phase II turnover metabolism ([2]; human) | Latency to maximal seizures ([5]; 0.3 mg/kg i.p.) | Animals surviving in PTZ seizure model ([5]; 1 mg/kg i.p., surviving/treated animals) | Survival rate in PTZ seizure model after XE991 pretreatment ([5]; compound 60 with XE991 3 mg/kg i.p. pretreatment)
1 | CCOC(=O)Nc1ccc(NCc2ccc(F)cc2)cc1N [RET, retigabine] | 3.08 | 4.7 ± 0.5% | 17.4 ± 1.2% | slightly but significantly reduced | almost fully abolished | 6.9 ± 0.3 | 1041.4±223.2 (at 3 mg/Kg) s | 7.3±0.3 (at 3 mg/Kg) | 7.3 ± 0.3 | 1041.4 ± 223.2 s | 40% (at 3 mg/Kg) | 40% | 3 mg/kg |  |  |  |  |  | 
2 | CC(C)(C)CC(=O)Nc1ccc(NCc2ccc(C(F)(F)F)cc2)c(F)c1N [compound 60, N-(2-Amino-3-fluoro-4-((4-(trifluoromethyl)benzyl)amino)phenyl)-3,3-dimethylbutanamide] |  |  |  | slightly but significantly reduced | almost fully abolished |  |  |  |  |  |  |  | 0.3 mg/kg | 4.74 | 8.2 ± 2.7% | 15.6 ± 0.3% | 1159.7 ± 169.4 s and 1159.7±169.4 (at 0.3 mg/Kg) s | 8/8 | 75%

Source: paper PMC9421656, “Beyond Retigabine: Design, Synthesis, and Pharmacological Characterization of a Potent and Chemically Stable Neuronal Kv7 Channel Activator with Anticonvulsant Activity” (Journal of Medicinal Chemistry, 2022)
